From patent US8759366B2, “Aminopyrimidines as SYK inhibitors” (Merck Sharp & Dohme Corp., priority 2009, dated 2014)

Experiments:
[1] = molecular target: recombinant human SYK (GST-hSYK fusion protein) (Homo sapiens (Human), UniProt P43405); experiment: biochemical
Text: Homogeneous Time-Resolved Fluorescence (HTRF) Assay for the Recombinant Human SYK Enzyme:

[2] = tested on: PGD2; settings: dosed intranasally, phase I/II study, allergic rhinitis; cited from earlier work
[3] = phase II clinical trial, allergic rhinitis; cited from earlier work
[4] = molecular target: rhSYK (Homo sapiens (Human), UniProt P43405); experiment: biochemical

IC50 [1] [nM] | Compound | also measured
< 100 | Cc1cc(Nc2nccc(C(F)(F)F)n2)cc(-c2cnc([C@@](O)(CO)c3ccc(C(=O)O)cc3)s2)c1 [145(B), (S)4-{1,2-dihydroxy-1-[5-(3-methyl-5-{[4-(trifluoromethyl)pyrimidin-2-yl]amino}phenyl)-1,3-thiazol-2-yl]ethyl}benzoic acid] | –
– | Oc1cccc(Nc2ncc(F)c(Nc3cccc(O)c3)n2)c1 [Example R112] | PGD2 [2]: statistically significant decrease; clinical safety [2]: safe across a range of indicators; efficacy versus placebo [3]: lack of efficacy
< 100 | COC(=O)C(C)(C)Cc1ncc(-c2cc(C)cc(Nc3nccc(C(F)(F)F)n3)c2)s1 [Example 77, Methyl 2,2-dimethyl-3-[5-(3-methyl-5-{[4-(trifluoromethyl)pyrimidin-2-yl]amino}phenyl)-1,3-thiazol-2-yl]propanoate] | –
– | O=C(NC1CC1)[C@H]1CC[C@H](c2ncc(-c3cccc(Nc4nccc(C(F)(F)F)n4)c3)s2)CC1 [Example 23, trans-N-cyclopropyl-4-[5-(3-{[4-(trifluoromethyl)pyrimidin-2-yl]amino}phenyl)-1,3-thiazol-2-yl]cyclohexanecarboxamide] | IC50 [4]: < 100 nM
– | O=C(O)[C@H]1CC[C@H](c2ncc(-c3cccc(Nc4nccc(C(F)(F)F)n4)c3)s2)CC1 [Example 22, Trans-4-[5-(3-{[4-(trifluoromethyl)pyrimidin-2-yl]amino}phenyl)-1,3-thiazol-2-yl]cyclohexanecarboxylic acid] | IC50 [4]: < 100 nM
100 to 1000 | Cc1cc(Nc2nccc(C(F)(F)F)n2)cc(-c2cnc(C3CCC(C(N)=O)C(C)(C)C3)s2)c1 (single isomer, unassigned) [154(b), 2,2-Dimethyl-4-[5-(3-methyl-5-{[4-(trifluoromethyl)pyrimidin-2-yl]amino}phenyl)-1,3-thiazol-2-yl]cyclohexanecarboxamide] | –
– | CCNC(=O)Nc1cc(Nc2nccc(C(F)(F)F)n2)cc(-c2cnc(C3CCC(C(N)=O)CC3)s2)c1 (single isomer, unassigned) [Example 20(1), 4-[5-(3-[(ethylcarbamoyl)amino]-5-{[4-(trifluoromethyl)pyrimidin-2-yl]amino}phenyl)-1,3-thiazol-2-yl]cyclohexanecarboxamide] | IC50 [4]: < 100 nM
< 100 | CC(=O)Nc1cc(Nc2nccc(OC3CCN(C(C)=O)CC3)n2)cc(-c2cnc(C3(O)CCC3)s2)c1 [Example 109-3] | –
100 to 1000 | CC(C)(C)OC(=O)N1CC(Oc2ccnc(Nc3cc(N)cc(-c4cnc(C5(O)CCC5)s4)c3)n2)C1 [Example 109-10] | –

Compound | IC50 [1] [nM] | also measured
Cc1cc(Nc2nccc(C(F)(F)F)n2)cc(-c2cnc(C3(O)CCC(NC(=O)C4CCCOC4)CC3)s2)c1 (stereo not shown) [Example 54E-18] | < 100 | –
CC(C)(c1ncc(-c2cc(F)cc(Nc3nccc(C(F)(F)F)n3)c2)s1)S(N)(=O)=O [2-[5-(3-fluoro-5-{[4-(trifluoromethyl)pyrimidin-2-yl]amino}phenyl)-1,3-thiazol-2-yl]propane-2-sulfonamide] | 818 | –
